In patent US20240336573A1, “COMPOUND FOR THE TREATMENT AND PROPHYLAXIS OF INFECTIOUS DISEASES” (Eberhard Karls Universität Tübingen Medizinische Fakultät, priority 2021, published 2024):

Legend:
E. coli ATCC 25922 = assay: Sensitizer MIC assay (vancomycin); assay type: cell-based; conditions: compound concentration of 100 μM
Procedure: To test for the sensitizer properties of the compounds, the inventors then performed a sensitizer MIC assay. To this end, E. coli BW25113, E. coli JW2496-3, and E. coli ATCC 25922 inocula were prepared as described above. Each well of a 96-well plate was prefilled with a fixed compound concentration of 100 μM and a dilution series of Vancomycin ranging from […]. A sensitizing effect was defined as reduction of the MIC value of Vancomycin of the respective test strain.

HepG2 cells = assay: Cytotoxicity assay (LDH release); assay type: cell-based; conditions: 500 μM compound, 1 h at 37° C., some cells also say precipitate
Procedure: Cell cytotoxicity of shelf derivatives was evaluated monitoring the LDH release from HepG2 cells using the CytoTox 96@ Non-Radio Cytotoxicity Assay (Promega) according to the manufacturer's instructions. […] After incubation, 25 μl were transferred into a fresh 96-well flat clear bottom plate and mixed with 25 μl CytoTox 96@ Reagent. LDH release reactions were incubated 30 min at RT in the dark and 25 μl Stop Solution were added. LDH release was measured at 490 nm in a multiplate reader.

SurA [1] = target: T1, SurA (Escherichia coli, UniProt P0ABZ6); assay: nanoDSF of QHL compounds (Tycho); assay type: binding, E. coli; parameters: key: An increase of the inflection points in the nanoDSF experiments is indicated by (+); a decrease by (−); no changes with (none); ambiguity with a question mark (?); conditions: re-evaluation; 100 μM compound, 2 μM SurA, 40 mM HEPES pH 7.4
Procedure: Nano Differential Scanning Fluorimetry (nanoDSF) measurements of the QHL (qualified hit list) compounds provided by the ELF were performed on a Tycho system (NanoTemper).

SurA [2] = target: T1, SurA; assay: Microscale thermophoresis at the ELF (O1); assay type: binding, E. coli; parameters: key to MST score: 1 = binder; 6 = non-binder; conditions: for MST score: score 1-6
Procedure: His-tagged SurA was labeled with the Monolith His-Tag Labeling Kit RED-tris-NTA (Nanotemper) according to the manufacturer's instructions.
Microscale thermophoresis measurements at the ELF were performed as follows. Compounds were tested in 8-point curves at a top starting concentration of 100-0.39 μM. […] 12-point dose responses of reference compound were also set up and tested between runs. Final measurement conditions were 40 mM HEPES pH 7.4, 0.1% Pluronic-F127, 50 nM SurA with Monolith settings—40% excitation and 60% MST power. MST data (capillary scan and shape, initial fluorescence and MST traces) were analyzed and a score was given to each compound.

SurA [3] = target: T1, SurA; assay: Luciferase-based SurA activity assay (primary assay, in-house); assay type: biochemical, E. coli; parameters: key to primary assay SurA: SurA inhibition = +; no SurA inhibition = 0; conditions: for primary assay SurA: shelf derivatives evaluation
Description: The biological function of SurA is to bind and to keep outer membrane proteins that have reached the periplasm in an unfolded but folding-competent state. The inventors' assay is based on this interaction and uses firefly Luciferase (fLuc) as a non-native substrate. […] This is exploited in the assay (FIG. 3). The loss of tertiary structure of fLuc leads to the exposure of binding sites for SurA. It is known that SurA binds selectively to a special group of substrates. These substrates have in common the specific patterns of hydrophobic amino acids that are highly enriched in the beta strands of integral outer membrane proteins. These motifs are present in OMPs of all Gram-negative bacteria and in fLuc as well. Upon mild heat treatment of fLuc and its subsequent partial unfolding, fLuc is accepted as a substrate by SurA. Of note, these intermediates served as reporter substrates to determine the activity of a […] folding chaperone. […] This interaction remains stable upon temperature reduction. Next, the temperature of the assay is reduced to room temperature and luciferase activity is subsequently measured by addition of Luciferin and ATP. In conditions without SurA, fLuc will refold into its active conformation resulting in a luminescence signal.
In short, the Luciferase based SurA activity assay was performed in SurA Activity Assay Buffer (40 mM HEPES pH 7.4, 20 mM MgSO4, 0.5 g/I BSA). SurA aliquots were thawn at RT, activated by mild heat treatment and cooled down to RT for 10 min. […] Solution A containing 10 mM ATP as well as 0.3 mM Luciferin (Promega Beetle Luciferin, Potassium Salt) in water was prepared. Luciferase working solution was prepared by diluting 1 ml Luciferase working stock (100 nM) with 9 ml assay buffer. 33 μl of the protein solution were added to every 2nd row of a well of a 384-well PS, white, flat bottom plate. […] Subsequently, 2 μl of compound in DMSO were added in quadruplicates (4 wells each of protein solution and buffer controls). These compound solutions could contain either various compounds or different dilutions of the same compound allowing screening inhibitor activity in a dose dependent manner. After compound addition, plates were incubated 15 min at RT. After this incubation, 5 μl of Luciferase working solution were added to each well. Next, the plates were incubated 25 min at 38° C. to partially unfold the Luciferase. Subsequently, the assay plate was cooled for 5 min at 4° C. followed by 10 min incubation at RT prior to luminescence measurement. Luminescence was measured in a TECAN infinite M200 pro plate reader for each well individually after injection of 10 μl Solution A.

T1 sequence (P0ABZ6 21-428): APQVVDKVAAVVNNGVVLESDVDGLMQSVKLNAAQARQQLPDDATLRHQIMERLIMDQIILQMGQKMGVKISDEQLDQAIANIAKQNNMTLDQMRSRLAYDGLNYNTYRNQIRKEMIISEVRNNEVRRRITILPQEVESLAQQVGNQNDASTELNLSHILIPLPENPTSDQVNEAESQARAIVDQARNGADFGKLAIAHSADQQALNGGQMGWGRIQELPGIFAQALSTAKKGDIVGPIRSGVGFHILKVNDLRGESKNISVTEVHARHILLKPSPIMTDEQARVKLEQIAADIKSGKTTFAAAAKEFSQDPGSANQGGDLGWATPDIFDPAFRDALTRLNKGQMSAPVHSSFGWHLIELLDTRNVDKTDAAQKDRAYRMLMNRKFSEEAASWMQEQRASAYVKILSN

SMILES | MIC (reduction of vancomycin MIC) (E. coli ATCC 25922) | CytoTox (HepG2 cells) | nanoDSF(Tycho) Ti#1 (SurA [1]) | nanoDSF(Tycho) Ti#2 (SurA [1]) | MST score (SurA [2]) | primary assay SurA (SurA [3]) | IC50 (SurA [2]; 8-point curves 100-0.39 μM, 50 nM SurA, read-out: MST pIC50 (converted)) [µM] | Primary Assay ICmax (SurA [3]; QHL-10 derivatives, dose response up to 125 μM, n/d: no signal detected) [µM] | Primary Assay Amplitude (SurA [3]; amplitude of signal, n/d: no signal detected)
CN(C)c1ccc(-c2nc3cc(NC(=O)Cn4cc5ccccc5n4)ccc3[nH]2)cc1 [QHL-24] | yes (reduction of the MIC for vancomycin of the E. coli ATCC 25922 strain below 256 mg/l at a compound concentration of 100 μM (yes/no)) | precipitate (7.87%) | none | + | 1 | + | – | – | –
NC(=O)c1nc(Cc2ccc(OCC(=O)O)cc2)[nH]c1NC(=O)c1ccc(-c2ccccc2)cc1 [Compound 2a, 2-(4-((5-([1,1′-biphenyl]-4-carboxamido)-4-carbamoyl-1H-imidazol-2-yl)methyl)phenoxy)acetic acid] | yes (reduction of the MIC for vancomycin of the E. coli ATCC 25922 strain below 256 mg/l at a compound concentration of 100 μM (yes/no)) | 50.23% | ? | + | 1 | + | 39.8 | 4 | high
